Test results taken from US20220145406A1, “BIOMARKERS, AND USES IN TREATMENT OF VIRAL INFECTIONS, INFLAMMATIONS, OR CANCER” (ABIVAX, priority 2018, published 2022).

System: CD4+ T cells
Assay: RNAseq differential gene expression
Type: cell-based, human
Text: All statistical analyses and plots were done with R software v3.5. For normalization and processing, we used edgeR v3.22.1, EDASeq v2.14 and DESeq2 v1.20. We decided to use counts per million (CPM) over transcripts per million (TPM) mainly because TPM discards a lot of information about the original count sizes and thus would have produced too much noise for differential testing. The first step was to filter the data. We considered a gene to be expressed at a reasonable level in a sample if it had at least five counts for each million mapped reads in that sample. For marker selection, we used a type 1^(*) error α threshold set to 5%. enabling a highly flexible approach to the differential analyses despite the lack of replicates. For the same reason, the log2 fold change cutoff was set to 1.5 for both positive and negative values, and the cutoff p-value was typically ≤0.05. Those appropriate cutoffs allowed us to identify differentially expressed genes. The false discovery rate (FDR) values were computed for illustration purposes but were not taken into account in the decision due to the lack of replicates. The first methodology choice was Benjamini and Hochberg. This procedure provides less stringent control of type 1 errors compared to familywise error rate (FWER) procedures (such as the Bonferroni correction). We added an MDS plot for the data with R and edgeR package. The MDS plot produces a plot in which distances between samples correspond to the leading biological coefficient of variation (BCV) between those samples. […] We also produced several volcano plots with R and the EDASeq package. These plots were a good representation of the differential expression (DE) testing in the RNA-Seq experiments. […] The green points highlighted are markers that satisfied our selection criteria (significant in both p-value and log2FC). The yellow points highlighted are genes that satisfied the log2FC criterion but failed the p-value criterion. We retained these points to investigate further even though they had no decisional value.
A full-detailed report describing the complete analysis was submitted to Gene Expression Omnibus (GEO, https://www.ncbi.nlm.nih.gov/geo/query/acc.cgi?acc=GSE116073). Total RNA extraction was performed according to the Qiagen miRNeasy □ kit. RNA concentrations were determined using Qubit[…] fluorometric quantification and purity by the RNA 6000 Bioanalyzer kit (Agilent). RNA-Seq libraries were constructed with the TruSeq stranded mRNA sample preparation (low-throughput protocol) kit from Illumina, according to the manufacturer's instructions. Aliquots of 1.2 μg of total RNA were used for the construction of the libraries. The final cDNA libraries were validated with a Fragment Analyzer (Advanced Analytical, Ankeny, Iowa) and quantified with a KAPA qPCR kit (Kapa Biosystems, Wilmington, Mass.). On the 8 sequencing lanes of a flow cell V4, the 32 libraries were pooled in equal proportions by sets of 4 libraries per lane, denatured with NaOH and diluted to […] before clustering. Cluster formation and primer hybridization and single-end read, 50-cycle sequencing were performed on the cBot and HiSeq 2500 (Illumina, San Diego, Calif.), respectively. Image analysis and base calling were performed using the HiSeq Control Software with the Real-Time Analysis component. Demultiplexing was performed using Illumina's sequencing analysis software. The quality of the data was assessed using FastQC from the Babraham Institute and the Illumina software SAV (Sequence Analysis Viewer). Potential contaminants were investigated with the FastQ Screen software from the Babraham Institute.
In the data preprocessing step, the HiSeq control and real-time analysis software generates image analysis, base calling, and base call quality automatically in real time. “Dirty” raw reads were defined as reads that contained adaptor sequence or high content of unknown bases and low-quality reads. […]

[1] = ABX464_I_vs_DMSO_I, infected CD4 T cells
[2] = ABX464_NI_vs_DMSO_NI, uninfected CD4 T cells
[3] = uninfected CD4+ T cells, ABX464 vs untreated

## FC(F)(F)Oc1ccc(Nc2ccc3cccc(Cl)c3n2)cc1 [ABX464, 8-chloro-N-(4-(trifluoromethoxy)phenyl)quinolin-2-amine]
[1]
  FC CECR1: 3.412
  FC DPF2: 3.071
  FC LARS2: 2.991
  FC LGALS3: 3.009
  FC NBPF20: 8.164
  FC NOP9: 3.02
  FC SCML1: 7.214
  FC TOR1AIP2: 14.39
  log2(FC) CECR1: 1.771
  log2(FC) DPF2: 1.619
  log2(FC) LARS2: 1.58
  log2(FC) LGALS3: 1.589
  log2(FC) NBPF20: 3.029
  log2(FC) NOP9: 1.594
  log2(FC) SCML1: 2.851
  log2(FC) TOR1AIP2: 3.847
[2]
  FC CECR1: 3.587
  FC DPF2: 2.95
  FC HELLS: 0.2107
  FC HIST1H1D: 0.3392
  FC HOPX: 3.35
  FC LARS2: 2.99
  FC MZT2B: 0.3168
  FC NDUFB7: 0.3486
  FC RPS19BP1: 0.3377
  FC SCML1: 9.378
  FC SNORD3A: 0.1318
  FC TOR1AIP2: 11.2
  log2(FC) CECR1: 1.843
  log2(FC) DPF2: 1.561
  log2(FC) HELLS: −2.246
  log2(FC) HIST1H1D: −1.56
  log2(FC) HOPX: 1.744
  log2(FC) LARS2: 1.58
  log2(FC) MZT2B: −1.658
  log2(FC) NDUFB7: −1.52
  log2(FC) RPS19BP1: −1.566
  log2(FC) SCML1: 3.229
  log2(FC) SNORD3A: −2.924
  log2(FC) TOR1AIP2: 3.486
Infected CD4+ T cells, ABX464 vs untreated
  number of upregulated genes: 9 genes
Infected CD4+ T cells, ABX464 vs untreated (FIG. 2E legend)
  number of downregulated genes: 6 genes
[3]
  number of downregulated genes: 6 genes
  number of upregulated genes: 7 genes
